Reference: patent US20150284335A1, “Benzoimidazoles as prolyl hydroxylase inhibitors” (Janssen Pharmaceutica NV, priority 2008, published 2015)
Marks after values point to notes of the source that are not given here.

Experiments:
PHD2181-417 = molecular target: T1, PHD2181-417 (Homo sapiens, UniProt Q9GZT9); assay: PHD enzyme activity assay ([14C]-succinic acid production); type: biochemical; settings: inhibition of PHD2181-417 activity; HIF-1α peptide 10 μM, [5-14C]-2-oxoglutaric acid, 10 minutes; read-out: Enzyme pIC50 (converted);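 note: enzyme expressed in E. coli BL21, assayed in Tris-HCl pH 7.5 with catalase, DTT and ascorbate, [14C]-succinic acid beta-counted after DNP precipitation of residual 2-oxoglutarate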
T1 construct: histidine tag (N, cleaved yes); Smt3 (SUMO) tag (N, cleaved yes); made in house; host or cells: E. coli BL21 (pBAD vector)

Hep-3B cells = assay: Cellular assay: EPO secretion in Hep-3B cells; type: cell-based, human; settings: 24 hours, percent of EPO secretion relative to assay control compound
[1] = final compound concentration 100 μM

T1 sequence (Q9GZT9 181-417): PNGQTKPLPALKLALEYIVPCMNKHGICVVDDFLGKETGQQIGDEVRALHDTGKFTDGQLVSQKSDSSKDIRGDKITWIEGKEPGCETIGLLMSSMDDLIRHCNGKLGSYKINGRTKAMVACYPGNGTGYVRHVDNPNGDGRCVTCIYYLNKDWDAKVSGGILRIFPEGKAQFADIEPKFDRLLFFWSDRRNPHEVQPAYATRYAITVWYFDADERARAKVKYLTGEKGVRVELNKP

| Compound | IC50 (PHD2181-417) [µM] | Cellular % EPO Stimulation (Hep-3B cells; [1]) [%] | Cellular % EPO Stimulation (Hep-3B cells; final compound concentration of 10 μM) |
| --- | --- | --- | --- |
| O=C(O)CNC(=O)c1nc2cc(-c3ccc(OCc4cccc(Cl)c4)c(Cl)c3)ccc2[nH]1 [Example 21, ({5-[3-Chloro-4-(3-chloro-benzyloxy)phenyl]-1H-benzoimidazole-2-carbonyl}-amino)-acetic acid] | 7.94 | −1.43 | – |
| Cc1cc(-c2ccc3[nH]c(C(=O)NCC(=O)O)nc3c2)cc(C)c1OCc1cccc(Cl)c1 [Example 22, ({5-[4-(3-Chloro-benzyloxy)-3,5-dimethyl-phenyl]-1H-benzoimidazole-2-carbonyl}-amino)-acetic acid] | 12.6 | −1.06 | – |
| COc1cccc(-c2ccc3[nH]c(C(=O)NCC(=O)O)nc3c2)c1 [Example 23, {[5-(3-Methoxy-phenyl)-1H-benzoimidazole-2-carbonyl]-amino}-acetic acid] | 39.8 | 1.40 | – |
| O=C(O)CNC(=O)c1nc2cc(-c3cc(C(=O)NCc4ccccc4)ccc3F)ccc2[nH]1 [Example 24, {[5-(5-Benzylcarbamoyl-2-fluoro-phenyl)-1H-benzoimidazole-2-carbonyl]-amino}-acetic acid] | 15.8 | 13.56 | – |
| O=C(O)CNC(=O)c1nc2cc(-c3ccc4ccccc4c3)ccc2[nH]1 [Example 25, [(5-Naphthalen-2-yl-1H-benzoimidazole-2-carbonyl)-amino]-acetic acid] | 12.6 | 2.10 | – |
| CCCOc1ccc(-c2ccc3[nH]c(C(=O)NCC(=O)O)nc3c2)cc1 [Example 26, {[5-(4-Propoxy-phenyl)-1H-benzoimidazole-2-carbonyl]-amino}-acetic acid] | 15.8 | 2.50 | – |
| Cc1cc(-c2ccc3[nH]c(C(=O)NCC(=O)O)nc3c2)ccc1Cl [Example 27, {[5-(4-Chloro-3-methyl-phenyl)-1H-benzoimidazole-2-carbonyl]-amino}-acetic acid] | 39.8 | −0.70 | – |
| O=C(O)CNC(=O)c1nc2cc(-c3cc(Cl)ccc3F)ccc2[nH]1 [Example 28, {[5-(5-Chloro-2-fluoro-phenyl)-1H-benzoimidazole-2-carbonyl]-amino}-acetic acid] | 25.1 | 1.40 | – |
| O=C(O)CNC(=O)c1nc2cc(NC(=O)c3ccccc3)ccc2[nH]1 [Example 29, [(5-Benzoylamino-1H-benzoimidazole-2-carbonyl)-amino]-acetic acid] | 63.1 | −3.30 | – |
| O=C(O)CNC(=O)c1nc2ccc(NS(=O)(=O)c3ccccc3)cc2[nH]1 [Example 30, [(6-Benzenesulfonylamino-1H-benzoimidazole-2-carbonyl)-amino]-acetic acid] | 31.6 | 1.10 | – |
| O=C(O)CNC(=O)c1nc2ccc(NCc3ccccc3)cc2[nH]1 [Example 31, [(6-Benzylamino-1H-benzoimidazole-2-carbonyl)-amino]-acetic acid] | 5.01 | 1.40 | – |
| O=C(O)c1cnn(-c2nc3cc(Cl)c(Cl)cc3[nH]2)c1 [Example 33, 1-(5,6-Dichloro-1H-benzoimidazol-2-yl)-1H-pyrazole-4-carboxylic acid] | 0.1 | 168.46 | – |
| O=C(O)c1cnn(-c2nc3cc(C(F)(F)F)ccc3[nH]2)c1 [Example 34, 1-(5-Trifluoromethyl-1H-benzoimidazol-2-yl)-1H-pyrazole-4-carboxylic acid] | 0.251 | 127.80 | – |
| O=C(O)c1cnn(-c2nc3cc(-c4cccc(OCc5ccc(Cl)cc5)c4)ccc3[nH]2)c1 [Example 45, 1-{5-[3-(4-Chloro-benzyloxy)-phenyl]-1H-benzoimidazol-2-yl}-1H-pyrazole-4-carboxylic acid] | 0.0398 | 2.10 | – |
| C[C@@H](NC(=O)c1nc2cc(Cl)c(Cl)cc2[nH]1)C(=O)O [Example 53, (R)-2-[(5,6-Dichloro-1H-benzoimidazole-2-carbonyl)-amino]-propionic acid] | > 100 | – | 11.3* % |
| C[C@@H](NC(=O)c1nc2ccc(I)cc2[nH]1)C(=O)O [Example 54, (R)-2-[(5-Iodo-1H-benzoimidazole-2-carbonyl)-amino]-propionic acid] | > 100 | 7.50 | – |
